Measurements reported in patent publication US20250346593A1, “IMIDAZO(1,2-1)PYRIDINE DERIVATIVES AS RIPK2 INHIBITORS” (Interline Therapeutics, Inc., priority 2022, published 2025).
pIC50: −log10 of the molar value. Where two headings read alike, the source gives them in different places.

What was measured:
[1] = system: NF-κB pathway (SEAP) in THP1-Dual cells; assay: THP-1 Dual cell SEAP assay (L18-MDP stimulated); assay type: cell-based; conditions: Homo sapiens, THP1-Dual, read-out: NFkB THP1 IC50
[2] = target: GST-RIPK2 fusion protein (human RIPK2 amino acids 1-310) (Homo sapiens (Human), UniProt O43353); assay: RIPK2 binding competition assay (TR-FRET, Tracer 199)
Sequence of GST-RIPK2 fusion protein (human RIPK2 amino acids 1-310) (O43353 1-310): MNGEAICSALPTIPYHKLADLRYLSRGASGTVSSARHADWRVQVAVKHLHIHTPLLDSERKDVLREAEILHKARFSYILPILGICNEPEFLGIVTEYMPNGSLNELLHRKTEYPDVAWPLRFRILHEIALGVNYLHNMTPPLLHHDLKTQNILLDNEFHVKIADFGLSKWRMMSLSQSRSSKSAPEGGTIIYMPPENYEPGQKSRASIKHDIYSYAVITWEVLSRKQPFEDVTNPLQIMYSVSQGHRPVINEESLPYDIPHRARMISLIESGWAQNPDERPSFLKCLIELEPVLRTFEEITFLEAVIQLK

[3] = read-out: RIPK2 IC50, RIPK2 binding competition assay

Row | SMILES | pIC50 [1] | pIC50 [2, 3] | pIC50 [2]
1 | CNc1cncc(-c2cnc3cc(OC)c(S(=O)(=O)C(C)(C)C)cn23)c1 [Example 34, 5-(6-(tert-butylsulfonyl)-7-methoxyimidazo[1,2-a]pyridin-3-yl)-N-methylpyridin-3-amine] | < 6.00 | < 7.70 | –
2 | COc1cc2ncc(-c3cc(N)c(C)c(F)c3)n2cc1S(=O)(=O)C(C)(C)C [Example 35, 5-(6-(tert-butylsulfonyl)-7-methoxyimidazo[1,2-a]pyridin-3-yl)-3-fluoro-2-methylaniline] | < 6.00 | < 7.70 | –
3 | COc1cc2ncc(-c3cccc(N)c3)n2cc1S(=O)(=O)C(C)(C)C [Example 36, 3-(6-(tert-butylsulfonyl)-7-methoxyimidazo[1,2-a]pyridin-3-yl)aniline] | < 6.00 | < 7.70 | –
4 | COc1cc2ncc(-c3cc(N)cc(S(C)(=O)=O)c3)n2cc1S(=O)(=O)C(C)(C)C [Example 37, 3-(6-(tert-butylsulfonyl)-7-methoxyimidazo[1,2-a]pyridin-3-yl)-5-(methylsulfonyl)aniline] | < 6.00 | < 7.70 | –
5 | COc1cc2ncc(-c3cc(F)cc(N)c3F)n2cc1S(=O)(=O)C(C)(C)C [Example 38, 3-(6-(tert-butylsulfonyl)-7-methoxyimidazo[1,2-a]pyridin-3-yl)-2,5-difluoroaniline] | 6.60 to 7.30 | – | 8.60 to 9.00
6 | COc1cc2ncc(-c3ccc(OC(F)F)c(N)c3)n2cc1S(=O)(=O)C(C)(C)C [Example 39, 5-(6-(tert-butylsulfonyl)-7-methoxyimidazo[1,2-a]pyridin-3-yl)-2-(difluoromethoxy)aniline] | 6.60 to 7.30 | – | 7.70 to 8.60
7 | COc1cc2ncc(-c3cc(F)c(N)c(N)c3F)n2cc1S(=O)(=O)C(C)(C)C [Example 40, 4-(6-(tert-butylsulfonyl)-7-methoxyimidazo[1,2-a]pyridin-3-yl)-3,6-difluorobenzene-1,2-diamine] | 6.00 to 6.60 | – | 7.70 to 8.60
8 | COc1cc2ncc(-c3cc(N)cc(C#N)c3)n2cc1S(=O)(=O)C(C)(C)C [Example 41, 3-amino-5-(6-(tert-butylsulfonyl)-7-methoxyimidazo[1,2-a]pyridin-3-yl)benzonitrile] | 6.60 to 7.30 | – | 7.70 to 8.60
9 | COc1cc2ncc(-c3cc(N)cc(OC(F)F)c3)n2cc1S(=O)(=O)C(C)(C)C [Example 42, 3-(6-(tert-butylsulfonyl)-7-methoxyimidazo[1,2-a]pyridin-3-yl)-5-(difluoromethoxy)aniline] | 6.00 to 6.60 | – | 7.70 to 8.60
10 | COc1cc2ncc(-c3cc(N)c(F)c(OC)c3)n2cc1S(=O)(=O)C(C)(C)C [Example 43, 5-(6-(tert-butylsulfonyl)-7-methoxyimidazo[1,2-a]pyridin-3-yl)-2-fluoro-3-methoxyaniline] | 6.60 to 7.30 | – | 7.70 to 8.60
11 | COc1cc2ncc(-c3cc(N)c(F)c(F)c3)n2cc1S(=O)(=O)C(C)(C)C [Example 44, 5-(6-(tert-butylsulfonyl)-7-methoxyimidazo[1,2-a]pyridin-3-yl)-2,3-difluoroaniline] | 6.60 to 7.30 | – | 7.70 to 8.60
12 | COc1ccn2c(-c3cc(F)nc(F)c3)cnc2c1 [Example 45, 3-(2,6-difluoropyridin-4-yl)-7-methoxyimidazo[1,2-a]pyridine] | < 6.00 | < 7.70 | –
13 | COc1cc(N)cc(-c2cnc3cc(OC)c(S(=O)(=O)C(C)(C)C)cn23)c1 [Example 46, 3-(6-(tert-butylsulfonyl)-7-methoxyimidazo[1,2-a]pyridin-3-yl)-5-methoxyaniline] | 6.60 to 7.30 | – | 7.70 to 8.60
14 | COc1cc2ncc(-c3cc(N)c(OC)c(OC)c3)n2cc1S(=O)(=O)C(C)(C)C [Example 47, 5-(6-(tert-butylsulfonyl)-7-methoxyimidazo[1,2-a]pyridin-3-yl)-2,3-dimethoxyaniline] | < 6.00 | – | 7.70 to 8.60
15 | COc1cc2ncc(-c3cc(C)c(F)c(N)c3)n2cc1S(=O)(=O)C(C)(C)C [Example 48, 5-(6-(tert-butylsulfonyl)-7-methoxyimidazo[1,2-a]pyridin-3-yl)-2-fluoro-3-methylaniline] | < 6.00 | < 7.70 | –
16 | COCc1cc(N)cc(-c2cnc3cc(OC)c(S(=O)(=O)C(C)(C)C)cn23)c1 [Example 49, 3-(6-(tert-butylsulfonyl)-7-methoxyimidazo[1,2-a]pyridin-3-yl)-5-(methoxymethyl)aniline] | 6.00 to 6.60 | < 7.70 | –
17 | COc1cc2ncc(-c3cnc(OC(F)F)c(N)c3)n2cc1S(=O)(=O)C(C)(C)C [Example 50, 5-(6-(tert-butylsulfonyl)-7-methoxyimidazo[1,2-a]pyridin-3-yl)-2-(difluoromethoxy)pyridin-3-amine] | < 6.00 | < 7.70 | –
18 | COc1cc2ncc(-c3cc(N)c(OC)c(C#N)c3)n2cc1S(=O)(=O)C(C)(C)C [Example 51, 3-amino-5-(6-(tert-butylsulfonyl)-7-methoxyimidazo[1,2-a]pyridin-3-yl)-2-methoxybenzonitrile] | < 6.00 | < 7.70 | –

Row | SMILES | pIC50 [1] | pIC50 [2, 3] | pIC50 [2]
19 | COc1cc2ncc(-c3cc(F)c(OC)c(N)c3F)n2cc1S(=O)(=O)C(C)(C)C [Example 52, 3-(6-(tert-butylsulfonyl)-7-methoxyimidazo[1,2-a]pyridin-3-yl)-2,5-difluoro-6-methoxyaniline] | 6.00 to 6.60 | – | 7.70 to 8.60
20 | COc1cc(-c2cnc3cc(OC)c(S(=O)(=O)C(C)(C)C)cn23)cc(N)n1 [Example 53, 4-(6-(tert-butylsulfonyl)-7-methoxyimidazo[1,2-a]pyridin-3-yl)-6-methoxypyridin-2-amine] | 6.60 to 7.30 | – | 7.70 to 8.60
21 | COc1cc2ncc(-c3cnc(OC)c(N)c3)n2cc1S(=O)(=O)C(C)(C)C [Example 54, 5-(6-(tert-butylsulfonyl)-7-methoxyimidazo[1,2-a]pyridin-3-yl)-2-methoxypyridin-3-amine] | < 6.00 | < 7.70 | –
22 | COc1cc2ncc(-c3cc(C)c(OC)c(Cl)n3)n2cc1S(=O)(=O)C(C)(C)C [Example 55, 6-(tert-butylsulfonyl)-3-(6-chloro-5-methoxy-4-methylpyridin-2-yl)-7-methoxyimidazo[1,2-a]pyridine] | < 6.00 | < 7.70 | –
23 | COc1cc2ncc(-c3cc(F)c(OC)c(C#N)c3)n2cc1S(=O)(=O)C(C)(C)C [Example 56, 5-(6-(tert-butylsulfonyl)-7-methoxyimidazo[1,2-a]pyridin-3-yl)-3-fluoro-2-methoxybenzonitrile] | < 6.00 | < 7.70 | –
24 | COc1cc2ncc(-c3cc(F)c(OC)c(F)c3)n2cc1S(=O)(=O)C(C)(C)C [Example 57, 6-(tert-butylsulfonyl)-3-(3,5-difluoro-4-methoxyphenyl)-7-methoxyimidazo[1,2-a]pyridine] | < 6.00 | < 7.70 | –
25 | COc1cc2ncc(-c3cc(F)c(OC)c(OC)c3)n2cc1S(=O)(=O)C(C)(C)C [Example 58, 6-(tert-butylsulfonyl)-3-(3-fluoro-4,5-dimethoxyphenyl)-7-methoxyimidazo[1,2-a]pyridine] | < 6.00 | – | 7.70 to 8.60
26 | COc1cc2ncc(-c3cc(F)c(OC)c(CCO)c3)n2cc1S(=O)(=O)C(C)(C)C [Example 59, 2-(5-(6-(tert-butylsulfonyl)-7-methoxyimidazo[1,2-a]pyridin-3-yl)-3-fluoro-2-methoxyphenyl)ethan-1-ol] | 6.00 to 6.60 | – | 7.70 to 8.60
27 | COc1cc2ncc(-c3csnc3OC)n2cc1S(=O)(=O)C(C)(C)C [Example 60, 4-(6-(tert-butylsulfonyl)-7-methoxyimidazo[1,2-a]pyridin-3-yl)-3-methoxyisothiazole] | < 6.00 | – | 7.70 to 8.60
28 | COc1cc2ncc(-c3cc(F)cc(F)n3)n2cc1S(=O)(=O)C(C)(C)C [Example 61, 6-(tert-butylsulfonyl)-3-(4,6-difluoropyridin-2-yl)-7-methoxyimidazo[1,2-a]pyridine] | 6.00 to 6.60 | < 7.70 | –
29 | CCOc1ncc(-c2cnc3cc(OC)c(S(=O)(=O)C(C)(C)C)cn23)s1 [Example 62, 5-(6-(tert-butylsulfonyl)-7-methoxyimidazo[1,2-a]pyridin-3-yl)-2-ethoxythiazole] | < 6.00 | < 7.70 | –
30 | COc1cc2ncc(-c3cc(N)c(OCCO)c(F)c3)n2cc1S(=O)(=O)C(C)(C)C [Example 64, 2-(2-amino-4-(6-(tert-butylsulfonyl)-7-methoxyimidazo[1,2-a]pyridin-3-yl)-6-fluorophenoxy)ethan-1-ol] | 6.60 to 7.30 | – | 7.70 to 8.60
31 | COc1cc2ncc(-c3cc(N)c(OC(F)F)c(F)c3)n2cc1S(=O)(=O)C(C)(C)C [Example 65, 5-(6-(tert-butylsulfonyl)-7-methoxyimidazo[1,2-a]pyridin-3-yl)-2-(difluoromethoxy)-3-fluoroaniline] | 6.60 to 7.30 | – | 8.60 to 9.00
32 | CCOc1c(N)cc(-c2cnc3cc(OC)c(S(=O)(=O)C(C)(C)C)cn23)cc1F [Example 66, 5-(6-(tert-butylsulfonyl)-7-methoxyimidazo[1,2-a]pyridin-3-yl)-2-ethoxy-3-fluoroaniline] | < 6.00 | < 7.70 | –
33 | COc1cc2ncc(-c3ccc(N4CCCC4=O)nc3)n2cc1S(=O)(=O)C(C)(C)C [Example 67, 1-(5-(6-(tert-butylsulfonyl)-7-methoxyimidazo[1,2-a]pyridin-3-yl)pyridin-2-yl)pyrrolidin-2-one] | < 6.00 | < 7.70 | –
34 | COc1cc2ncc(-c3cnc(N)c(C)c3)n2cc1S(=O)(=O)C(C)(C)C [Example 68, 5-(6-(tert-butylsulfonyl)-7-methoxyimidazo[1,2-a]pyridin-3-yl)-3-methylpyridin-2-amine] | < 6.00 | < 7.70 | –
35 | CNc1ccc(-c2cnc3cc(OC)c(S(=O)(=O)C(C)(C)C)cn23)cn1 [Example 69, 5-(6-(tert-butylsulfonyl)-7-methoxyimidazo[1,2-a]pyridin-3-yl)-N-methylpyridin-2-amine] | < 6.00 | < 7.70 | –
